# Results published in patent US9834542B2, “LXR modulators” (BRISTOL-MYERS SQUIBB COMPANY, priority 2013, dated 2017).
# Biological target: T1, LXRβ (Homo sapiens, UniProt P55055)
# T1 construct: Co-transfection expression plasmids, comprising full-length LXRα (pCMX-h LXRα[…] or LXRβ (pCMX-hLXRβ)); expressed in transfected cells; host or cells: CV-1 African Green Monkey Kidney Cells
# T1 sequence (P55055 1-460): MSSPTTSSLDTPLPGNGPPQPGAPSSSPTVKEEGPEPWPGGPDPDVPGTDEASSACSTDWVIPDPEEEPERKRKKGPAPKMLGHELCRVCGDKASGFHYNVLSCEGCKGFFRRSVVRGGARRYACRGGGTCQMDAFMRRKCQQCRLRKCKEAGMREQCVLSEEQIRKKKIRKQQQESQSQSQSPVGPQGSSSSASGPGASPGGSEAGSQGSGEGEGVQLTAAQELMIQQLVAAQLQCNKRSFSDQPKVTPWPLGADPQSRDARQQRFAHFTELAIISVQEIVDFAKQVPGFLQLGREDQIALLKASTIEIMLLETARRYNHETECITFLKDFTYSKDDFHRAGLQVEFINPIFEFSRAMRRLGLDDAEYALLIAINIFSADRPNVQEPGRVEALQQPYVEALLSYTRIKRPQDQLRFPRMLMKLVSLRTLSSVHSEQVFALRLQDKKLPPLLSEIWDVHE
# T1 sequence (P19793 1-462 partner): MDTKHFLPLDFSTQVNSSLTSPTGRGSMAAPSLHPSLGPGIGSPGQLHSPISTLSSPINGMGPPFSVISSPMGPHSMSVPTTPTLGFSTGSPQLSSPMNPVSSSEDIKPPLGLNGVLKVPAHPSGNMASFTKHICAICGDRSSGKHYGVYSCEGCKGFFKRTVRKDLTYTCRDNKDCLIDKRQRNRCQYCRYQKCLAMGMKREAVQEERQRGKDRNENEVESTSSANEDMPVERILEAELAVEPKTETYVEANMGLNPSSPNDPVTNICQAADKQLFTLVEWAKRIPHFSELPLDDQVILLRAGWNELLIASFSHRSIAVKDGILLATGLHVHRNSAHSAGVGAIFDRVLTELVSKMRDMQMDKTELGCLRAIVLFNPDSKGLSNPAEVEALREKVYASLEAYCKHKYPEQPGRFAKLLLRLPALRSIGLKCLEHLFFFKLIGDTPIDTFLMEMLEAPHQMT
# Assay: Co-transfection assay (LXRE luciferase reporter), LXRβ
# Assay type: cell-based
# Settings: for EC50: CV-1 cells transfected with pCMX-hLXRβ and LXREx1-Tk-Luciferase, 20 hours incubation; for Emax: LXRβ co-transfection, relative to high control 1-(2,4-difluorobenzyl)-2-oxo-6-(4-phenoxyphenyl)-4-(trifluoromethyl)-1,2-dihydropyridine-3-carbonitrile, read-out: % Efficacy
# Outline: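 CV-1 / pCMX-hLXRβ + LXREx1-Tk-Luc + β-gal; cpd 20 h, 37 °C, ≤0.5% DMSO; Steady-Glo luminescence. 11-pt ½-log curves, duplicate wells, sigmoidal fit → EC50; % efficacy vs high-control agonist, DMSO low control; mean of ≥2 expts.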
Structure (SMILES),EC50 [nM],Emax [%]
"COC(=O)c1ccc(-c2cnnn2-c2cc(-c3cccc(S(C)(=O)=O)c3)ccc2-n2cc(C(F)(F)F)nc2C)cc1 [Example 82, methyl 4-(1-{3′-(methylsulfonyl)-4-[2-methyl-4-(trifluoromethyl)-1H-imidazol-1-yl]biphenyl-3-yl}-1H-1,2,3-triazol-5-yl)benzoate]",260,89
"Cc1nc(C(F)(F)F)cn1-c1ccc(-c2cccc(S(C)(=O)=O)c2)cc1-n1nncc1Cc1ccccc1OC(F)(F)F [Example 123, 1-{3′-(methylsulfonyl)-4-[2-methyl-4-(trifluoromethyl)-1H-imidazol-1-yl]biphenyl-3-yl}-5-({2-[(trifluoromethyl)oxy]phen-yl}methyl)-1H-1,2,3-triazole]",1100,36
Cc1nc(-c2cc(-c3cc(F)c(CO)c(S(C)(=O)=O)c3)ccc2-n2cc(C(F)(F)F)nc2C)c(-c2ccc(OC(F)F)c(OCC3CC3)c2)o1 [Example 383],23,67
"Cc1nc(C(F)(F)F)cn1-c1ccc(-c2cccc(C(C)(C)C(N)=O)c2)cc1-n1nncc1-c1ccc(OC(F)(F)F)cc1 [Example 27, 2-methyl-2-{4′-[2-methyl-4-(trifluoromethyl)-1H-imidazol-1-yl]-3′-(5-{4-[(trifluoromethyl)oxy]phenyl}-1H-1,2,3-triazol-1-yl)biphenyl-3-yl}propanamide]",561,83
"Cc1nc(C(F)(F)F)cn1-c1ccc(-c2ccc(CO)c(S(C)(=O)=O)c2)cc1-c1ccnn1-c1ccc(Cl)nc1 [Example 298, (3′-(1-(6-chloropyridin-3-yl)-1H-pyrazol-5-yl)-4′-(2-methyl-4-(trifluoromethyl)-1H-imidazol-1-yl)-3-(methylsulfonyl)biphenyl-4-yl)methanol]",317,71
Cc1nc(-c2cc(-c3cccc(S(C)(=O)=O)c3)ccc2-n2cc(C(F)(F)F)nc2C)c(-c2cc(F)cc(F)c2)o1 [Example 447],269,64
"Cc1cc(-c2cc(-c3cc(O)c(CF)c(S(C)(=O)=O)c3)ccc2-n2cc(C(F)(F)F)nc2C)n(-c2ccc(OC(F)(F)F)cc2)n1 [Example 303, 4-(fluoromethyl)-3′-(3-methyl-1-(4-(trifluoromethoxy)phenyl)-1H-pyrazol-5-yl)-4′-(2-methyl-4-(trifluoromethyl)-1H-imidazol-1-yl)-5-(methylsulfonyl)-[1,1′-biphenyl]-3-ol]",21,68
"CCC(F)(F)c1cn(-c2ccc(-c3cc(F)c(CO)c(S(C)(=O)=O)c3)cc2-c2ocnc2-c2ccc(OC(F)(F)F)cc2)c(C)n1 [Example 363, {4′-[4-(1,1-difluoropropyl)-2-methyl-1H-imidazol-1-yl]-3-fluoro-5-(methylsulfonyl)-3′-(4-{4-[(trifluoromethyl)oxy]phenyl}-1,3-oxazol-5-yl)biphenyl-4-yl}methanol]",288,58
"Cc1nc(C(F)(F)F)cn1-c1ccc(-c2cc(F)c(CO)c(S(C)(=O)=O)c2)cc1-n1nncc1Cc1cccc(Cl)c1 [Example 120, (3′-{5-[(3-chlorophenyl)methyl]-1H-1,2,3-triazol-1-yl}-3-fluoro-5-(methylsulfonyl)-4′-[2-methyl-4-(trifluoromethyl)-1H-imidazol-1-yl]biphenyl-4-yl)methanol]",795,91
"Cc1nc(C(F)F)cn1-c1ccc(-c2cccc(S(C)(=O)=O)c2)cc1-n1nncc1-c1ccc2c(c1)OC(F)(F)O2 [Example 167, 5-(2,2-difluoro-1,3-benzodioxol-5-yl)-1-{4-[4-(difluoromethyl)-2-methyl-1H-imidazol-1-yl]-3′-(methylsulfonyl)biphenyl-3-yl}-1H-1,2,3-triazole]",779,107
"Cc1nc(C(F)(F)F)cn1-c1ccc(-c2cccc(S(C)(=O)=O)c2)cc1-n1nncc1-c1cc(F)c(F)c(F)c1 [Example 71, 1-{3′-(methylsulfonyl)-4-[2-methyl-4-(trifluoromethyl)-1H-imidazol-1-yl]biphenyl-3-yl}-5-(3,4,5-trifluorophenyl)-1H-1,2,3-triazole]",400,105
"Cc1nc(C(F)(F)F)cn1-c1ccc(-c2cccc(S(C)(=O)=O)c2)cc1-n1nncc1C(=O)c1cccc(C(F)(F)F)c1 [Example 137, (1-{3′-(methylsulfonyl)-4-[2-methyl-4-(trifluoromethyl)-1H-imidazol-1-yl]biphenyl-3-yl}-1H-1,2,3-triazol-5-yl)[3-(trifluoromethyl)phenyl]meth-anone]",1090,63
"Cc1nc(C(F)(F)F)cn1-c1ccc(-c2cc(Cl)c(CO)c(S(C)(=O)=O)c2)cc1-n1nncc1-c1ccc(Cl)c(Cl)c1 [Example 79, {3-chloro-3′-[5-(3,4-dichlorophenyl)-1H-1,2,3-triazol-1-yl]-5-(methylsulfonyl)-4′-[2-methyl-4-(trifluoromethyl)-1H-imidazol-1-yl]biphenyl-4-yl}methanol]",227,71

# Results, then the molecule that gave them:
EC50 [nM],Emax [%],Structure (SMILES)
28,106,"CNS(=O)(=O)c1cccc(-c2ccc(-n3cc(C(F)(F)F)nc3C)c(-c3nc(C)oc3-c3ccc(OC(F)F)cc3)c2)c1 [Example 540, 3′-(5-(4-(difluoromethoxy)phenyl)-2-methyloxazol-4-yl)-N-methyl-4′-(2-methyl-4-(trifluoromethyl)-1H-imidazol-1-yl)-[1,1′-biphenyl]-3-sulfonamide]"
144,32,"Cc1nc(C(F)(F)F)cn1-c1ccc(-c2cc(F)c(CO)c(S(C)(=O)=O)c2)cc1-c1nc(C(F)(F)F)cn1-c1ccc(Cl)cc1 [Example 645, (3′-(1-(4-chlorophenyl)-4-(trifluotomethyl)-1H-imidazol-2-yl)-3-fluoro-4′-(2-methyl-4-(trifluoromethyl)-1H-imidazol-1-yl)-5-(methylsulfonyl)biphenyl-4-yl)methanol]"
69,56,"Cc1nc(-c2cc(-c3cc(F)c(CO)c(S(C)(=O)=O)c3)ccc2-n2cc(C(F)(F)F)nc2C)c(-c2ccc3c(c2)CCC3)o1 [Example 475, (3′-(5-(2,3-dihydro-1H-inden-5-yl)-2-methyloxazol-4-yl)-3-fluoro-4′-(2-methyl-4-(trifluoromethyl)-1H-imidazol-1-yl)-5-(methylsulfonyl)biphenyl-4-yl)methanol]"
233,73,Cc1nc(-c2cc(-c3cc(F)cc(S(C)(=O)=O)c3)ccc2-n2cc(C(F)(F)F)nc2C)c(-c2ccc(OC(F)F)c(F)c2)o1 [Example 462]
85,96,"Cc1nc(-c2cc(-c3cccc(S(C)(=O)=O)c3)ccc2-n2cc(C(F)(F)F)nc2C)c(-c2ccc(N(C)C)cc2)o1 [Example 500, N,N-dimethyl-4-(2-methyl-4-(4-(2-methyl-4-(trifluoromethyl)-1H-imidazol-1-yl)-3′-(methylsulfonyl)biphenyl-3-yl)oxazol-5-yl)aniline]"
18,96,"CCc1nc(-c2cc(-c3cccc(S(C)(=O)=O)c3)ccc2-n2cc(C(F)(F)F)nc2C)c(-c2ccc(OC(F)(F)F)cc2)o1 [Example 555, 2-ethyl-4-(4-(2-methyl-4-(trifluoromethyl)-1H-imidazol-1-yl)-3′-(methylsulfonyl)-[1,1′-biphenyl]-3-yl)-5-(4-(trifluoromethoxy)phenyl)oxazole]"
